Reference: PubChem BioAssay (NCI)
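Each compound was tested at five concentrations against cells in 96-well plates for 48 hours. Here, GI50 denotes the concentration required for 50% inhibition of growth. At the TGI there is no net growth.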

Experiments:
Assay in all cases: NCI-60 cell line screen, 48 h
CAKI-1 renal = test system: CAKI-1 renal
K-562 leukemia = test system: K-562 leukemia
NCI-H522 lung = test system: NCI-H522 lung
HT29 colon = test system: HT29 colon
OVCAR-8 ovarian = test system: OVCAR-8 ovarian
OVCAR-5 ovarian = test system: OVCAR-5 ovarian
UACC-62 melanoma = test system: UACC-62 melanoma
NCI-H460 lung = test system: NCI-H460 lung
OVCAR-3 ovarian = test system: OVCAR-3 ovarian
HS 578T breast = test system: HS 578T breast

Structure (SMILES)	TGI (CAKI-1 renal)	TGI (K-562 leukemia)	TGI (NCI-H522 lung)	TGI (HT29 colon)	TGI (OVCAR-8 ovarian)	TGI (OVCAR-5 ovarian)	TGI (UACC-62 melanoma)	TGI (NCI-H460 lung)	TGI (OVCAR-3 ovarian)	GI50 (HS 578T breast)	TGI (HS 578T breast)	GI50 (K-562 leukemia)	GI50 (NCI-H522 lung)	GI50 (HT29 colon)	GI50 (OVCAR-8 ovarian)	GI50 (OVCAR-5 ovarian)	GI50 (UACC-62 melanoma)	GI50 (NCI-H460 lung)	GI50 (OVCAR-3 ovarian)	GI50 (CAKI-1 renal)
Cc1ccc(NC(=O)/C(=N/NC(=O)CC#N)C2C(=O)N(c3ccccc3)N=C2N)cc1C (stereo unspecified)	> 100 µM	> 100 µM	> 100 µM	> 100 µM	> 100 µM	> 100 µM	> 100 µM	> 100 µM	> 100 µM											
Nc1c(C(=O)Nc2cccc3ccccc23)sc2nc3c(cc12)CCCCC3		> 50 µM	4.7 µM	4 µM	> 50 µM	> 50 µM	> 50 µM	> 50 µM	> 50 µM	0.35 µM	> 50 µM	0.216 µM	0.724 µM	1.05 µM	1.68 µM	2.48 µM	0.219 µM	1.33 µM	0.542 µM	
O=C1CC(c2ccccc2)NCN1 (stereo unspecified)	> 100 µM	> 100 µM	> 100 µM	> 100 µM	> 100 µM	> 100 µM	> 100 µM		> 100 µM											
O=C1NC(=O)[C@H]2C3C=CC([C@@H]12)[C@@H]1C(=O)NC(=O)[C@H]31	> 100 µM	> 100 µM	> 100 µM		> 100 µM	> 100 µM	> 100 µM	> 100 µM	> 100 µM		> 100 µM									
Cc1ccc(-c2nc3nc(-c4ccc(Cl)cc4)nc(N4CCCNCC4)c3o2)cc1	2.88 µM		3.85 µM	3.94 µM	4.77 µM	2.87 µM	3.24 µM	3.76 µM	3.81 µM	1.93 µM	4.17 µM		1.75 µM	1.93 µM	2.15 µM	1.53 µM	1.74 µM	1.93 µM	1.94 µM	1.45 µM
N#CC(c1ccc(Cl)cc1)c1cccc(Cl)n1 (stereo unspecified)	> 100 µM	> 100 µM	> 100 µM	> 100 µM	> 100 µM	> 100 µM	> 100 µM	> 100 µM	> 100 µM											
Cc1cc(Nc2nc(N3CCOCC3)nc3ccccc23)n[nH]1	12.3 µM	> 100 µM	> 100 µM	52.8 µM	> 100 µM	> 100 µM		> 100 µM	> 100 µM	1.44 µM	4.78 µM	5.14 µM	17.4 µM	5.09 µM	21.1 µM	25.4 µM		4.45 µM	11.5 µM	1.4 µM
O[C@H]1[C@H]2[C@H](O)CCCN2C[C@H]1O	> 100 µM		> 100 µM	> 100 µM	> 100 µM	> 100 µM	> 100 µM	> 100 µM	> 100 µM											
NC1=NN(c2ccccc2)C(=O)C1C(=O)C(=O)Nc1cccc(C(F)(F)F)c1 (stereo unspecified)	> 100 µM	> 100 µM	> 100 µM	> 100 µM	> 100 µM	> 100 µM	> 100 µM	> 100 µM	> 100 µM											
C/C(=N\[N+](C)(C)C)C(c1ccccc1)C1(c2ccccc2)C(c2ccccc2)=C1c1ccccc1 (stereo unspecified)	> 100 µM	> 100 µM	> 100 µM	> 100 µM	> 100 µM	> 100 µM	> 100 µM	> 100 µM	> 100 µM											
CC(=O)Oc1cc2c(=O)oc3c(OC(C)=O)c(OC(C)=O)c(OC(C)=O)c4c(=O)oc(c1OC(C)=O)c2c34	> 100 µM	> 100 µM	> 100 µM	> 100 µM	> 100 µM	> 100 µM	> 100 µM	> 100 µM	> 100 µM											
O=S(=O)(NCCNc1cc(-c2cn(-c3ccccc3)nc2-c2cccc(O)c2)ccn1)c1ccc(F)cc1	> 100 µM		3.79 µM	4.79 µM	14.1 µM	5.69 µM	4.73 µM	9.12 µM	4.59 µM	2.94 µM	> 100 µM		1.49 µM	1.99 µM	3.07 µM	1.93 µM	1.99 µM	3.12 µM	1.98 µM	3.89 µM
CCCN1C(=O)/C(=C/c2ccc(O)cc2)SC1=Nc1ccccc1	38.8 µM	> 100 µM	> 100 µM	86.7 µM	68.8 µM	44.2 µM	45.3 µM	29.9 µM	33.8 µM			92.1 µM	39.7 µM	33.5 µM	25.8 µM	21.7 µM	21 µM	15.2 µM	17.8 µM	21.6 µM
CCCCCCCCO/N=C\c1c2c(O)c3c(O)c(C)c4c(c3c1O)C(=O)C(C)(O/C=C\C(OC)C(C)C(OC(C)=O)C(C)C(O)C(C)C(O)C(C)/C=C\C=C(\C)C(=O)N2)O4 (stereo unspecified)	5.04 µM				6.97 µM	8.08 µM	2.92 µM	2.14 µM	2.18 µM	1.07 µM	3.1 µM				1.75 µM	2.12 µM	1.02 µM	0.998 µM	0.96 µM	1.33 µM
O=C(/C=C/c1ccc2c(c1)OCO2)c1ccccc1	23 µM	> 100 µM			58.5 µM	36.8 µM	33.7 µM	37.5 µM	17.9 µM	11.8 µM	45.6 µM	4.42 µM			17.4 µM	16.2 µM	16.3 µM	13.9 µM	4.71 µM	6.9 µM
O=C(CCc1ccc(O)c(O)c1)c1ccc(O)c(O)c1O	37.9 µM	66 µM	41.1 µM	84 µM	74.2 µM	49.4 µM	> 100 µM	36.2 µM			> 100 µM									
COC1=CC(C)C2C[C@H]3O[C@H](O)C[C@H]4C(C)C(=O)C(O)C([C@@]2(C)C1=O)[C@@]34C (stereo partly specified)	> 100 µM	> 100 µM	> 100 µM	> 100 µM	> 100 µM		> 100 µM	> 100 µM	> 100 µM											
O=C(/C=C\c1cccc2ccccc12)c1ccc(Br)cc1	> 100 µM	44.2 µM	35.3 µM	35.3 µM	33 µM	47.4 µM	29.3 µM	37.2 µM	34.4 µM											
